Key:
primary astrocytes [1] = test: Mitochondrial activity: production of H2O2 (Amplex red); format: cell-based; conditions: Mus musculus, Astrocyte, 1.5 h; CDC54K hits, 0-200 uM, 90 min
Experimental: Hydrogene peroxide (H2O2) released in the supernatant is detected enzymatically with Amplex red (Zhou, Diwu et al. 1997). Oxidation of Amplex red is catalysed by the horseradish peroxidase in presence of H2O2 into highly fluorescent resorufin. Fluorescence measure is read at 545 nm extinction, 590 nm emission. The amount of H2O2 was expressed relatively to the proteins content extracted from the cells in culture.
Mitochondrial respiration in astrocytes was measured through production of H2O2 at 90 min after stimulation with Prestwick Hits (10 uM each). […] CCCP (2 uM) was used as positive control.
Mitochondrial respiration in astrocytes was measured through production of H2O2 at 90 min after stimulation with CDC54K Hits (ranging from 0 to 200 uM).

primary astrocytes [2] = test: Intracellular glycogen quantification, Example 2; format: cell-based, mouse; conditions: 10 μM, 3 h
Experimental: Astrocytes grown on 12-well plates were used for intracellular glycogen quantifications. Cells were stimulated with Vehicle (DMSO), with compounds of the invention (10 μM), or with a positive control for 180 min, at 37° C. 5% CO2/95% air in D5030 medium complemented with
5 mM D-glucose and 44 mM sodium bicarbonate (pH 7.2). […] At the end of the stimulation, medium was removed and replaced with 600 μl of 30 mM Tris HCl, and stored at −20° C.
First, the amount of proteins in each sample was quantified to assess whether harvested astrocytes from primary cell cultures yielded enough and equivalent amounts of proteins on each replicates. Proteins were quantified using the micro BCA Protein Assay kit (Thermo Scientific), according to manufacturer's instructions. Next, intracellular glycogen concentrations were quantified using a 250 μl-aliquot of the same stimulated, thawed, and sonicated cell lysate. After an incubation period of 30 min at 90° C. and 400 rpm, 28 μl of a 0.1M acetic acid/sodium acetate buffer (pH 4.6) was added to each lysate aliquots, which were then separated in two. Each split aliquots received either 5 μl of amyloglucosidase or H2O, and incubated for 120 min at 37° C. After centrifugation at 16'000G for 5 min, 20 μl of supernatant were placed in a 96-well plate, to which 150 μl of a mix containing 0.67 mM ATP, 0.67 mM NADP, 1.8% hexokinase/glucose-6-phosphate dehydrogenase in a 0.1M Tris Buffer-HCl/3.3 mM magnesium (pH 8.1) buffer was added. Fluorescence intensity (340 nm excitation/440 nm emission) was measured using a Safire 2 spectrophotometer. Glucose concentrations were assessed relative to a glucose standard curve, and glycogen concentrations were calculated by subtracting glucose values of samples that had received amyloglucosidase (i.e. that had degraded their glycogen stores) to samples that had not. Intracellular levels of glycogen, which is the main source of glucose storage in the brain, were analyzed in primary astrocytes after treatment with compounds of interest (10 μM, 3 h) (FIG. 5B), and compound GP-0157 (0.1, 1, 10 μM, 3 h) (FIG. 20).

primary astrocytes [3] = test: MTT viability assay; format: cell-based; conditions: Mus musculus, Astrocyte; CDC54K hits, 0-200 uM, 24 h
Experimental: For cell toxicity determination, astrocytes in 96-well plates were stimulated 24 h (37° C. 5% CO2/95% air) with a gradient ranging from 0.1 to 200 μM of tested compounds. After stimulation, 5 mg/ml thiazol blue tetrazolium bromide (MTT, Sigma-Aldrich) in warm D5030 complete medium was added to each well, and cells were incubated for 4 h at 37° C. (5% CO2). The medium was then removed by aspiration, and the reaction was stopped by the addition of 50 μl DMSO per well.
The amount of reduced MTT (formazan) solubilized in DMSO was then determined spectrophotometrically using absorbance at 570 nm (Safire 2; Tecan).
MTT cellular viability assay was performed on astrocytes exposed to Preswtick Hits (concentrations ranging from 0 uM to 200 uM).
MTT cellular viability assay was performed on astrocytes exposed to CDC54K Hits (concentrations ranging from 0 uM to 200 uM).

primary astrocytes [4] = test: Intracellular glycogen quantification; format: cell-based, mouse; conditions: CDC54K hits, 10 μM, 3 h
Experimental: For glycogen dosage, a protein dosage was first performed in order to assess whether harvested astrocytes from primary cell cultures yielded enough and equivalent amounts of proteins comparing each replicate, and to ensure that the obtained differences in glycogen quantities were due to drug action and not to inner protein quantities.
Astrocytes used for these dosages were previously grown in 6-well plates for 17 days and stimulated with Vehicle (DMSO) or drug of interest (1 μM to 100 μM) for 180 min, at 37° C. 5% CO2/95% air in D5030 complete medium. Medium was removed and replaced with 600 μl of 30 mM Tris HCl, and stored at −20° C.
Proteins were dosed using the micro BCA Protein Assay kit (Thermo Scientific), as described in the manufacturer's instructions. Briefly, thawed cells were sonicated and 5 μl aliquots were placed in a transparent 96-well plate, to which we added 25 μl 30 mM Tris HCl, 70 μl H2O and 100 μl of a BCA mix (made as described in manufacturer's guidelines). After a 120 min-incubation at 37° C., absorbance was measured with Safire 2 spectrophotometer at a wavelength of 562 nm, and protein quantities were determined from a standard curve of Bovine Serum Albumin (BSA).
Glycogen was quantified using a 250 μl-aliquot of the same stimulated, thawed, and sonicated cells. After an incubation period of 30 min at 90° C. and 400 rpm, 28 μl of an acetic acid/sodium acetate (both from Sigma) 0.1M pH 4.6 buffer was added to each aliquot, which was then separated in two. Each split aliquot received whether 5 μl of amyloglucosidase (Roche) or 5 μl H2O, and all cell solutions were incubated for 120 min in a shaking 37° C.-waterbath. After a centrifugation at 16'000G for 5 min, 20 μl of supernatant were placed 96-well plate, to which 150 μl of a mix containing 0.67 mM ATP (Roche), 0.67 mM NADP (Roche), 1.8% hexokinase/glucose-6-phosphate dehydrogenase (Roche) and 0.1M Tris Buffer-HCl/3.3 mM magnesium (Fluka)/pH 8.1 buffer was added. Fluorescence was measured with Safire 2 spectrophotometer (340 nm excitation/440 nm emission). Glycogen concentration was obtained by substracting glucose value of samples with amyloglucosidase to samples without amyloglucosidase, and were expressed relative to the amount of proteins previously determined.
Levels of intracellular glycogen in astrocytes were measured at 3 h after stimulation with 20 Hits from the Prestwick library (10 μM each), as shown in FIG. 2. n=6-10; Ctrl pos. is glutamate (0.5 mM). Statistical analysis consisted in ANOVA followed by Fisher LSD post-hoc test for pair-wise comparisons.
Statistical analysis consisted in ANOVA followed by Fisher LSD post-hoc test for pair-wise comparisons.

Row | IC50 (primary astrocytes [1]) | Compound | mobilization of intracellular glycogen (primary astrocytes [2]) | IC50 (primary astrocytes [3]) | Glycogen (statistical significance of glycogen degradation) (primary astrocytes [4])
1 | > 200 µM | N#Cc1ccc(C(=O)N2CCC(Nc3ncnc4c3CCC4)C2)cc1 (stereo not drawn) [T636-2387] | significantly enhance | > 200 µM | ns
2 | > 200 µM | Cc1nc2ccc(NS(=O)(=O)c3cccc(F)c3)cc2s1 [T6937001] | significantly enhance | > 200 µM | ns
3 | 158 µM | CCc1ccc(S(=O)(=O)Nc2ccc3[nH]ncc3c2)cc1 [T5599014] | – | > 200 µM | ns
4 | > 200 µM | O=C1CCCN1c1ccc(S(=O)(=O)Nc2cccc(/C=C/c3ccccn3)c2)cc1 [T5644989] | significantly enhance | > 200 µM | ** (** p<0.01)
5 | 173 µM | CSc1cccc(NS(=O)(=O)c2ccc3onc(C(=O)N4CCCC4)c3c2)c1 [L995-0125] | – | > 200 µM | ns
6 | > 200 µM | COc1cc(C)c(Cl)cc1S(=O)(=O)NCc1ccncc1 [T5580243] | – | > 200 µM | ns
7 | > 200 µM | CCc1ccc(S(=O)(=O)N2CCSC2c2ccc(OC)c(OC)c2)cc1 (stereo not drawn) [T5463586] | – | > 200 µM | *** (*** p<0.001)
8 | > 200 µM | Cc1ccccc1NC(=O)C1CCCN(c2ncnc3oc(C)c(C)c23)C1 (stereo not drawn) [F228-0422] | significantly enhance | > 200 µM | ** (** p<0.01)
9 | 48.6 µM | CCn1nccc1-c1csc(S(=O)(=O)Nc2ccc(Cl)cc2F)c1 [L924-1031] | significantly enhance | > 200 µM | ** (** p<0.01)
10 | > 200 µM | CCc1nc(-c2csc(S(=O)(=O)NCc3ccc4c(c3)OCO4)c2)no1 [L287-0468] | significantly enhance | > 200 µM | ** (** p<0.01)
11 | – | c1ccc2c(c1)CCN(c1ncnc3sccc13)C2 [T0517-8250] | significantly enhance | – | ns
12 | > 200 µM | CC(=O)N1CCc2sc(S(=O)(=O)N3CCN(c4ccccc4C)CC3)cc2C1 [P025-0159] | significantly enhance | > 200 µM | ns
